Patent US10919891B2, “Heterocyclic compound” (TAKEDA PHARMACEUTICAL COMPANY LIMITED, priority 2017, dated 2021)

Tests used:
CSQ-Tg mice [1] = assay: Heart weight lowering effect in heart failure animal model; assay type: in vivo; details: for Heart weight (Mean ± standard deviation (mg)): female CSQ-Tg mice
Method: In this Test Example, the heart weight lowering effect of the compound of Example 1 was evaluated using CSQ-Tg mice as animal model for heart failure.
The compound of Example 1 was suspended in 0.5% methylcellulose aqueous solution (hereinafter, in Test Examples, sometimes referred to as “vehicle”) (10 mL/kg). The obtained suspension was orally administered to 5-week old female CSQ-Tg mice developing heart failure at a dose of 10 mg/kg bodyweight/day (n=7) or 30 mg/kg bodyweight/day (n=10) once daily (QD) for 21 days. For a negative control (vehicle administration group), 0.5% methylcellulose aqueous solution (n=7) was administered. Then, weights of the hearts were measured. The measurement of the weights was carried out by fractionating each of the hearts into four: left ventricle, right ventricle, left atrium, and right atrium. The sum of the weights of the four fractions was defined as the heart weight.

CSQ-Tg mice [2] = assay: Effect on survival rate of heart failure animal model; assay type: in vivo
Description: In this Test Example, effect of the compound of Example 1 on survival rate was examined using heart failure animal models. The mice reported in Larry R. Jones et al., J. Clin. Invest. 101: 1385-1393, 1998 were obtained from the University of Pennsylvania and bred in-house, which were cardiac-specific transgenic mice of Calsequestrin (CSQ)(CSQ-Tg mice) as the heart failure animal models. In the study, female mice were used, and dosing was started from the age of 5 weeks. The animals were fed with chow (CE-2, CLEA Japan, Inc.) and tap water under the condition of room temperature of 20 to 26° C., humidity of 40 to 70%, and lighting time of 12 hours/day (7:00 to 19:00). As already reported, in the CSQ-Tg mice, Ca^2+ intracellular release was suppressed, myocardial contraction was reduced, cardiac output was decreased, and cardiac hypertrophy and heart failure were developed.
To 5-week old female CSQ-Tg mice, the compound of Example 1 was orally administered at a dose of 10 mg/kg bodyweight/day with a frequency of once daily (QD) for 47 days (n=24). While, to the control group, vehicle (0.5% methylcellulose aqueous solution) was administered (n=24).
To 5-week old female CSQ-Tg mice, the compound of Example 1 was orally administered at a dose of 10 mg/kg bodyweight/day in combination with candesartan cilexetil (1 mg/kg bodyweight/day) with a frequency of once daily (QD) for 68 days (n=18). […]

CYP3A4 = target: T1, CYP3A4 (Homo sapiens, UniProt P08684); assay: CYP3A4 TDI (human liver microsomes, testosterone 6β-hydroxylation); assay type: in vitro ADME; details: test compound 30 μM, 60 min vs 0 min preincubation with NADPH, 37° C.
T1 construct: Human liver microsomes purchased from XenoTech, LLC (Lenexa, Kans.) was used; tissue XenoTech, LLC; host or cells: human liver microsomes
Method: Human liver microsomes purchased from XenoTech, LLC (Lenexa, Kans.) was used. Test compounds were dissolved in acetonitrile, acetonitrile/methanol (1:1, v/v) or DMSO/acetonitrile (1:4, v/v). To a human liver microsomes solution adjusted with phosphate buffer (pH 7.4), the test compound solution was added to obtain a human liver microsomes reaction solution having the test compound concentration of 30 μM. To the human liver microsome reaction solution, NADPH production system was added, and the mixture was preincubated at 37° C. for 0 minutes or 60 minutes. After the preincubation, probe substrate testosterone was added, and testosterone metabolite 6β-hydroxytestosterone was analyzed by LC/MS/MS to evaluate CYP3A4 enzymatic activity.
The enzyme activity (% of control) at each preincubation point was calculated from the following equation: % of control=[(activity of test compound addition group)/(activity of test compound non-addition group)]×100.
The remaining activity (% remaining) after 60 minutes of preincubation was calculated from the following equation: Remaining activity (%)=[activity after 60 minutes (% of control60 min)]/[activity after 0 minutes (% of control0 min)]×100.

[3] = 10 mg/kg bodyweight/day oral QD for 21 days
[4] = 30 mg/kg bodyweight/day oral QD for 21 days

T1 sequence (P08684 whole entry): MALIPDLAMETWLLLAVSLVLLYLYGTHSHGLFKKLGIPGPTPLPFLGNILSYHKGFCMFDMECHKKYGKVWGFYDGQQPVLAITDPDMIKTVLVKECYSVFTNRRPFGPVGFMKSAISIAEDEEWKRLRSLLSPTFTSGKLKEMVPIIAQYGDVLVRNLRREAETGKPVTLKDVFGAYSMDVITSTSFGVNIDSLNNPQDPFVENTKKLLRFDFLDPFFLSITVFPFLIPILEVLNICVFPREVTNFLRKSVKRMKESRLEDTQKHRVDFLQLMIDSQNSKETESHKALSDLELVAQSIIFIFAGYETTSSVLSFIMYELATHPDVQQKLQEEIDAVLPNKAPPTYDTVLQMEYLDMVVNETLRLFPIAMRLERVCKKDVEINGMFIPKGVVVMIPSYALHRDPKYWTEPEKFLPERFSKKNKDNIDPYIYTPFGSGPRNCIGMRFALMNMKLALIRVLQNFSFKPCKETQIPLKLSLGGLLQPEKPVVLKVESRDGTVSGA

CC1(C)C[C@H](c2ccccc2)Nc2c(C(=O)N3C[C@@H]4C[C@]4(c4ccc(Cl)c(Cl)c4)C3)cnn21 [Example 1, ((1S,5R)-1-(3,4-Dichlorophenyl)-3-azabicyclo[3.1.0]hex-3-yl)((5R)-7,7-dimethyl-5-phenyl-4,5,6,7-tetrahydropyrazolo[1,5-a]pyrimidin-3-yl)methanone]
Left atrium weight (Mean ± standard deviation (mg)) (CSQ-Tg mice [1]; [3]): 10.7 ± 3.5 mg | Left ventricle weight (Mean ± standard deviation (mg)) (CSQ-Tg mice [1]; [3]): 160.1 ± 11.9 mg | Right atrium weight (Mean ± standard deviation (mg)) (CSQ-Tg mice [1]; [3]): 6.2 ± 3.1 mg | Right ventricle weight (Mean ± standard deviation (mg)) (CSQ-Tg mice [1]; [3]): 44.9 ± 5.1 mg | Heart weight (Mean ± standard deviation (mg)) (CSQ-Tg mice [1]; [3]): 221.9 ± 18.2 mg | Left atrium weight (Mean ± standard deviation (mg)) (CSQ-Tg mice [1]; [4]): 9.6 ± 2.6 mg | Left ventricle weight (Mean ± standard deviation (mg)) (CSQ-Tg mice [1]; [4]): 153.2 ± 12.7 mg | Right atrium weight (Mean ± standard deviation (mg)) (CSQ-Tg mice [1]; [4]): 5.8 ± 2.4 mg | Heart weight (Mean ± standard deviation (mg)) (CSQ-Tg mice [1]; [4]): 212.5 ± 21.9 mg | Right ventricle weight (Mean ± standard deviation (mg)) (CSQ-Tg mice [1]; 30 mg/kg bodyweight/day oral QD for 21 days, ** Williams' multiple comparison test (p < 0.025)): 43.9 ± 6.9** mg | Survival rates, log-rank test p (CSQ-Tg mice [2]; 10 mg/kg bodyweight/day co-administered with candesartan cilexetil (1 mg/kg bodyweight/day) QD 68 days vs candesartan cilexetil mono-administration (FIG. 2)): < 0.001 | Survival rates, log-rank test p (CSQ-Tg mice [2]; 10 mg/kg bodyweight/day oral QD for 47 days vs vehicle administration group (FIG. 1)): < 0.025 | Remaining Activity (%) (CYP3A4): 86.0%
